We go through 43 molecules from the Deep4Chem optical property database.

The nature of this data set: solvent given as SMILES.
Where [1] appears, read: in c1cc(-c2cccc(-n3c4ccccc4c4ccccc43)c2)cc(-n2c3ccccc3c3ccccc32)c1.

Regarding `COc1cccc2cc(C)c3c4ccccc4n(C)c3c12`, the emission maximum (in ClCCl) came to 380 nm.

Turning to `Clc1cc(Cl)c([C](c2c(Cl)cc(Cl)cc2Cl)c2c(Cl)cc(-n3c4ccccc4c4ccccc43)cc2Cl)c(Cl)c1`, the emission maximum reads like this: (in C1CCCCC1) 628 nm; (in ClC(Cl)Cl) 680 nm.

`Cc1cc(C)c(C2=C3C=C(/C=C/C(=O)OC(C)(C)C)C=[N+]3[B-](F)(F)n3c2ccc3N2CCCC2)c(C)c1` displayed an emission maximum (in ClCCl) of 551 nm.

For the molecule `O=c1oc2cc3ccccc3cc2nc1-c1ccccc1`, the emission maximum by setting is: (in CC#N) 538 nm; (in CCCCCC) 500 nm; (in CO) 548 nm; (in c1ccccc1) 514 nm.

In turn, `O=c1oc2cccc3c4cccc5ccc6c7ccccc7c1c(c23)c6c54` gave an emission maximum (in C1CCOC1) of 446 nm.

The molecule `CC(C)(C)NC(=O)c1ccc(C(=O)NC(C)(C)C)c2c1c1c3ccccc3c3ccccc3c1c1c3ccccc3c3ccccc3c21` displayed an emission maximum (in ClCCl) of 476 nm.

Where the note is “in ClC(Cl)Cl”, `CCCCn1c2ccccc2c2ccc3c4cc(-c5ccc(OC)cc5)ccc4n(CCCC)c3c21` displayed an emission maximum of 409 nm.

With `CCCCCCNC(=O)c1sc(-c2ccc(-c3cc(-c4ccc(C(C)(C)C)cc4)c(C(=O)NCCCCCC)s3)s2)cc1-c1ccc(C(C)(C)C)cc1`, the emission maximum (in ClCCl) was 448 nm.

`CC1=CC(c2ccc3cc(N(C)C)ccc3c2)=[O+][B-](F)(F)O1` returned an emission maximum (in C1CCOC1) of 566 nm; an emission maximum (in CC#N) of 611 nm; an emission maximum (in CC(C)=O) of 492 nm; an emission maximum (in CS(C)=O) of 624 nm; an emission maximum (in Cc1ccccc1) of 521 nm; an emission maximum (in ClC(Cl)Cl) of 552 nm. The molecule further returned an emission maximum (in ClCCl) of 574 nm.

In the case of `Cc1cc2ccccc2c2c1c1ccccc1n2-c1ccc(C#N)cc1`, the emission maximum (in ClCCl) was found to be 470 nm.

As to `CC1(C)c2ccccc2N(c2ccc(-c3cccc(C#N)c3)cc2)c2ccccc21`, the emission maximum is 431 nm (in Cc1ccccc1) and 436 nm (in N#Cc1ccc2c(c1)c1ccccc1n2-c1cccc(-n2c3ccccc3c3ccccc32)c1).

With `C(#Cc1ccncc1)C(C#Cc1ccncc1)=Cc1ccc(C=C(C#Cc2ccncc2)C#Cc2ccncc2)s1`, under “in ClC(Cl)Cl”, the emission maximum was 587 nm.

Turning to `O=C1[C@@H]2[C@H](C(=O)N1c1ccc3cc4ccccc4cc3c1)[C@@H]1C=C[C@H]2C1`, the emission maximum (in ClC(Cl)Cl) is 386 nm.

Regarding `CCCCCCCCCCCCOc1cc(C(=O)Nc2ccc(-c3ccc4c(c3)C(=O)c3ccccc3-4)cc2)cc(OCCCCCCCCCCCC)c1OCCCCCCCCCCCC`, the emission maximum (in C1CCOC1) is 529 nm.

`N#Cc1cc(/C=C/c2ccc(N(c3ccccc3)c3ccccc3)cc2)ccc1-c1ccc(/C=C/c2ccc(N(c3ccccc3)c3ccccc3)cc2)cc1C#N` returned an emission maximum (in ClCCl) of 472 nm.

In the case of `CCOC(=O)c1c(-c2cc3ccc(OC)cc3oc2=O)nn(-c2cccc(Cl)c2)c1C(=O)OCC`, the emission maximum (in ClCCl) is on record as 422 nm.

Turning to `Nc1n[n+]([O-])c2ccccc2[n+]1[O-]`, the emission maximum turned out to be 505 nm (in CC#N) and 545 nm (in O).

Regarding `N#Cc1nc2c3ccc(-n4c5ccccc5c5ccccc54)cc3c3cc(-n4c5ccccc5c5ccccc54)ccc3c2nc1C#N`, the emission maximum by setting is: (in C1COCCO1) 568.06 nm; (in CCCCCC) 469.61 nm; (in Cc1ccccc1) 531 nm; (in ClC(Cl)Cl) 612.69 nm; (in O=P(c1ccccc1)(c1ccccc1)c1cccc(-c2cc(-n3c4ccccc4c4ccccc43)cc(-n3c4ccccc4c4ccccc43)c2)n1) 560 nm.

On to `c1cc2c3cscc3c3ccsc3c2s1`, for which, under “in ClC(Cl)Cl”, the emission maximum worked out at 395 nm.

As for `CC1(C)c2ccccc2N(c2ccc3c(c2)c2ccccc2c2nc4ccccc4nc32)c2ccccc21`, the emission maximum reads like this: (in Cc1ccccc1) 541 nm; under setting [1], 549 nm.

`COC(=O)c1cc(=O)n(C)c2cc(-c3cccc(OC)c3)sc12`: the emission maximum is, setting by setting: (in CC#N) 463 nm; (in ClCCl) 464 nm.

Turning to `CCCCCCc1cc(B(c2c(C)cc(C)cc2C)c2c(C)cc(C)cc2C)c(-c2sc(CCCCCC)cc2P(=O)(c2ccccc2)c2ccccc2)s1`, for the setting “in CO”, the emission maximum came to 605 nm.

Molecule `COC(=O)c1[nH]c(-c2ccc(OC)cc2)c2nnc3ccc(OC)cc3c12` returned an emission maximum (in ClCCl) of 504 nm.

In turn, `CCOC(=O)COc1ccc(C(c2c(C)[nH]c3ccccc23)c2c(C)[nH]c3ccccc23)cc1OC` gave an emission maximum (in C1CCCCC1) of 329 nm, an emission maximum (in CC#N) of 340 nm, an emission maximum (in CO) of 345 nm and an emission maximum (in O) of 350 nm.

`COc1ccc(-c2c(-c3ccc(C)cc3)c3n(c2-c2ccc(C)cc2)[B-](F)(F)[N+]2=C(c4ccc(C)cc4)C(/C=C/C(=O)OC4CC[C@@]5(C)C(=CC[C@H]6[C@@H]7CC[C@H]([C@H](C)CCCC(C)C)[C@@]7(C)CC[C@@H]65)C4)=C(c4ccc(C)cc4)C2=N3)cc1` (some centres not stated) showed an emission maximum (in ClC(Cl)Cl) of 702 nm.

As to `Fc1c(F)c(F)c([B-]2(c3c(F)c(F)c(F)c(F)c3F)Oc3c(ccc4c5c(ccc34)C=[N+](c3ccccc3)[B-](c3c(F)c(F)c(F)c(F)c3F)(c3c(F)c(F)c(F)c(F)c3F)O5)C=[N+]2c2ccccc2)c(F)c1F`, the emission maximum by setting is: (in C1CCOC1) 578 nm; (in CC#N) 577 nm; (in CC(C)=O) 578 nm; (in Cc1ccccc1) 580 nm; (in ClCCl) 580 nm.

Where the note is “in ClCCl”, `c1ccc2c(c1)c1ccccc1c1ncncc21` had an emission maximum of 368 nm.

`CCOC(=O)CCCCCn1c2ccccc2c(=O)c2cc3c(cc21)c(=O)c1ccccc1n3CC`: the emission maximum (in CO) worked out at 550 nm.

`Cc1n[nH]c2c1C(c1ccc([N+](=O)[O-])cc1)C(C#N)=C(N)O2` (configuration not stated): the emission maximum runs as follows: (in C1CCOC1) 393 nm; (in C1COCCO1) 390 nm; (in CC#N) 407 nm; (in CCCCO) 410 nm; (in CCCO) 411 nm; (in CCO) 414 nm. Besides, the emission maximum is, setting by setting: (in CCOC(C)=O) 396 nm; (in CN(C)C=O) 405 nm; (in CO) 417 nm; (in CS(C)=O) 404 nm; (in Cc1ccccc1) 387 nm; (in ClCCl) 402 nm.

With `Cc1nnc(-c2ccc(-n3c4ccccc4c4ccccc43)cc2)o1`, the emission maximum by setting is: (in CCO) 440 nm; (in Cc1ccccc1) 372 nm.

`N#C/C(=C\c1ccc(-c2ccncc2)cc1)c1ccc(-c2ccncc2)cc1`: under “in ClCCl”, the emission maximum is reported as 460 nm.

Turning to `COC(=O)C(NC(=O)OC(C)(C)C)c1ccc2oc(-c3cc(OC)c(OC)cc3OC)nc2c1` (configuration not stated), the emission maximum came out at 357 nm (in CC1CCCCC1), 383 nm (in CC#N) and 389 nm (in CO).

Regarding `CCOC(=O)CCCCCn1c2ccc(F)cc2c(=O)c2cc3c(cc21)c(=O)c1cc(F)ccc1n3CCCCCC(=O)OCC`, for the setting “in CO”, the emission maximum is recorded as 566 nm.

For `COc1ccc2cc3c(C)cc(=O)oc3cc2c1`, the emission maximum runs as follows: (in CC#N) 453 nm; (in CCO) 464 nm; (in CCOC(C)=O) 435 nm; (in CO) 469 nm; (in ClC(Cl)Cl) 443 nm; (in OCC(F)(F)F) 496 nm.

As for `O=S1(=O)c2ccc(-c3ccc(-n4c5ccccc5c5ccccc54)cc3)cc2C2(c3ccccc3-c3ccccc32)c2cc(-c3ccc(-n4c5ccccc5c5ccccc54)cc3)ccc21`, the emission maximum came to 443.88 nm (in CC(C)=O); 400.18 nm (in CCCCCC); 455.8 nm (in CN(C)C=O); 396.57 nm (in Cc1ccccc1); 432 nm (in ClCCl).

Regarding `CCCCN1/C(=C/C=C/C2=[N+](C)c3ccccc3C2(C)C)C(C)(C)c2ccccc21`, where the note is “in CS(C)=O”, the emission maximum amounted to 565 nm.

On to `Cc1cc(C)c2c(c1)c1cc(C)cc(C)c1n2-c1ccc2c(c1)B(c1c(C(C)C)cc(C(C)C)cc1C(C)C)c1cc(-n3c4c(C)cc(C)cc4c4cc(C)cc(C)c43)ccc1N2c1ccccc1`, for which the emission maximum by setting is: (in C1CCOC1) 447.96 nm; (in CCOC(C)=O) 447.96 nm; (in Cc1ccccc1) 441.5 nm; (in ClCCl) 453.4 nm; under setting [1], 451 nm.

`COc1ccc(-c2cnc(-c3cccnc3)o2)cc1OC`: the emission maximum (in ClCCl) came to 420 nm.

For `C[NH+](C)c1c2ccccc2cc2ccccc12`, under “in O”, the emission maximum is recorded as 400 nm.

As to `Cc1ccc2c(c1)n(C)c(-c1ccc(-c3ccc(-c4ccc(-c5n(C)c6cc(C)ccc6[n+]5C)cc4)cc3)cc1)[n+]2C`, the emission maximum (in O) is on record as 397 nm.

For the setting “in ClCCl”, `Oc1ccccc1-c1nc2c(c3c1-c1ccccc1CC3)-c1ccccc1CC2` yielded an emission maximum of 413 nm.

In turn, `COc1ccc(N2c3ccc4ccccc4c3-c3c4ccccc4cc[n+]3[B-]2(c2ccccc2)c2ccccc2)cc1` displayed an emission maximum (in Cc1ccccc1) of 641 nm.

For `Cc1ccc(C2=C3C=CC(C#Cc4ccccc4)=[N+]3[B-](F)(F)n3c(C#Cc4ccccc4)ccc32)cc1`, the emission maximum is, setting by setting: (in C1CCCCC1) 626 nm; (in C1CCOC1) 625 nm; (in C1COCCO1) 626 nm; (in CCOC(C)=O) 621 nm; (in CO) 622 nm; (in Cc1ccccc1) 629 nm. In addition, the emission maximum turned out to be 628 nm (in ClC(Cl)Cl) and 628 nm (in ClCCl).
